Results published in EP1247803A2, “Indolinone compounds suitable for modulation of protein kinases” (Sugen, Inc., priority 1996, dated 1998).

These compounds were tested against T1, FLK-1 receptor (Mus musculus, UniProt P35918) (assay: FLK-1 ELISA (kinase activity of the FLK-1 receptor in FLK-1/NIH3T3 cells, VEGF stimulated)).
T1 construct: expressed in transfected cells; host or cells: NIH3T3 C7#3
Assay type: cell-based
In short: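 NIH3T3 C7#3 cells expressing FLK-1 were seeded at 25.000 cells/well, serum-starved overnight in 0.1% FBS, then treated with compound for two hours at 37°C (final DMSO 0.5%) before VEGF stimulation. Receptor was captured on anti-rabbit IgG-coated ELISA plates bearing affinity-purified anti-FLK-1 antiserum.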

T1 sequence (P35918 20-1345): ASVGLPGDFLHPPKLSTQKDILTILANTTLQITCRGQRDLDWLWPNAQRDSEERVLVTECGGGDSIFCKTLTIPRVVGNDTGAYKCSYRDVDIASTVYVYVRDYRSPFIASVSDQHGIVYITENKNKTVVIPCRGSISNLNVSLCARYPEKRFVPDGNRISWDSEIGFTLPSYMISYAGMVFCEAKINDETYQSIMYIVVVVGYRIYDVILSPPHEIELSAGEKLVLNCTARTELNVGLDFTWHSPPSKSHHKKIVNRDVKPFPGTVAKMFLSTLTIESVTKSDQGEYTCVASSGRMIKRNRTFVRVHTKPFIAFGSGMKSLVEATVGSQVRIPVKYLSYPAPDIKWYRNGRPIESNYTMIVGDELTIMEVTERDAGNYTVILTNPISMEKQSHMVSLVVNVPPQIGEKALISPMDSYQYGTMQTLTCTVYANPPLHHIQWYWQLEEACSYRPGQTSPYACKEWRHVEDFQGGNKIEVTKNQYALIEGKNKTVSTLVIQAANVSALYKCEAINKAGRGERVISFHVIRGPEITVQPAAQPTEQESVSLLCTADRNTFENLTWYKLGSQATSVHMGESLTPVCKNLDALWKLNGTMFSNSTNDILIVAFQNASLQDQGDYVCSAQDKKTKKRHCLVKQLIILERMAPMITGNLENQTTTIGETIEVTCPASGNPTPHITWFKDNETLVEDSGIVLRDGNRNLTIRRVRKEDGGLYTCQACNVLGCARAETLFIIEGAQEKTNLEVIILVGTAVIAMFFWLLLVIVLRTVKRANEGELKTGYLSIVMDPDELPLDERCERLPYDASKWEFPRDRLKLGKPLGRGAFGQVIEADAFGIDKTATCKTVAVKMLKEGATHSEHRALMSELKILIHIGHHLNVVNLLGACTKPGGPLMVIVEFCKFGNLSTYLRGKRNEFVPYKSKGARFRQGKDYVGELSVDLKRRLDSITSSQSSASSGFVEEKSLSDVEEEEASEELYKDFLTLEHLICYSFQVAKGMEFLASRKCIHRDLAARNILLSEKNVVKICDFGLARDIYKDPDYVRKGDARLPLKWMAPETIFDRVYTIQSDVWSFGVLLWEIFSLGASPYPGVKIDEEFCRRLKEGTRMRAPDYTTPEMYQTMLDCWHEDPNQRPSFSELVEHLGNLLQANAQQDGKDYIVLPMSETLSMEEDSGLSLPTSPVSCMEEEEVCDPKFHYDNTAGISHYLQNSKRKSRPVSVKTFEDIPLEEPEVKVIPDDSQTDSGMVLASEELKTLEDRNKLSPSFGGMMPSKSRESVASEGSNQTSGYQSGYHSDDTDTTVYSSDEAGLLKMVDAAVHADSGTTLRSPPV

How did the “Fik Kinase %Inhibition” value turn out when `O=C1Nc2ccc(S(=O)(=O)N3CCOCC3)cc2C1=Cc1ncc[nH]1` [10720/F11] was run?
Its value is 5.0%.

With `COc1ccc(O)c(C=C2C(=O)Nc3ccc(S(=O)(=O)N4CCOCC4)cc32)c1` [10720/F10] as the compound, how does the “Fik Kinase %Inhibition” value read?
Its value is -2.6%.

For `CNS(=O)(=O)c1ccc2c(c1)C(=Cc1ncc[nH]1)C(=O)N2` [10720/D11], which “Fik Kinase %Inhibition” value is on record?
The value was 9.8%.

With `O=C1Nc2c(Br)cc(Br)cc2C1=Cc1cc2c([nH]1)CCCC2` [10721/A05] as the compound, how does the “Fik Kinase %Inhibition” value read?
The value was 12.5%.

Which “Fik Kinase %Inhibition” value does the source give for `O=C1Nc2ccc(CCCl)cc2C1=Cc1ccccc1O` [10720/G05] here?
Its value is -2.9%.

Which “Fik Kinase %Inhibition” value does the source give for `CSc1ccc(C=C2C(=O)Nc3ccc(S(=O)(=O)Nc4ccc(C(F)(F)F)cc4)cc32)s1` [10720/E07] here?
The value was 18.8%.

With `Cc1c(Br)ccc2c1C(=Cc1nn(C)cc1Cl)C(=O)N2` [10721/C03] as the compound, how does the “Fik Kinase %Inhibition” value read?
The value was 16.5%.

`O=C1Nc2ccc(S(=O)(=O)N3CCOCC3)cc2C1=Cc1ccccc1` [10720/F06] was tested. Which “Fik Kinase %Inhibition” value did it give?
Its value is 11.9%.

Which “Fik Kinase %Inhibition” value does the source give for `CC(C)(C)c1cc(C=C2C(=O)Nc3ccc(I)cc32)cc(Br)c1O` [10721/B10] here?
Its value is 20.9%.

With `Cc1c(Br)ccc2c1C(=Cc1cc3c([nH]1)CCCC3)C(=O)N2` [10721/C05] as the compound, how does the “Fik Kinase %Inhibition” value read?
Its value is 56.4%.

Which “Fik Kinase %Inhibition” value does the source give for `CNS(=O)(=O)c1ccc2c(c1)C(=Cc1[nH]c(C)cc1C)C(=O)N2` [10721/D08] here?
The value was 3.9%.

Which “Fik Kinase %Inhibition” value does the source give for `O=C1Nc2ccc(CCCl)cc2C1=Cc1ncc[nH]1` [10720/G11] here?
The value was -18.0%.

Which “Fik Kinase %Inhibition” value does the source give for `CCOc1cc(C=C2C(=O)Nc3ccc(S(=O)(=O)NC)cc32)ccc1O` [10720/D09] here?
Its value is 5.8%.

Which “Fik Kinase %Inhibition” value does the source give for `Cn1cc(Cl)c(C=C2C(=O)Nc3c(Br)cc(Br)cc32)n1` [10721/A03] here?
The value was 11.4%.

For `COc1ccc(C=C2C(=O)Nc3ccc(S(=O)(=O)Nc4ccc(C(F)(F)F)cc4)cc32)cc1OC` [10720/E04], which “Fik Kinase %Inhibition” value is on record?
Its value is 18.4%.

How did the “Fik Kinase %Inhibition” value turn out when `CCOc1ccccc1C=C1C(=O)Nc2c(Br)cc(Br)cc21` [10717/A02] was run?
Its value is 0.1%.

`O=C1Nc2ccc(I)cc2C1=Cc1cc2c([nH]1)CCCC2` [10721/B05] was tested. Which “Fik Kinase %Inhibition” value did it give?
The value was 45.9%.

How did the “Fik Kinase %Inhibition” value turn out when `O=C1Nc2c(Br)cc(Br)cc2C1=Cc1cc([N+](=O)[O-])cc(CCl)c1O` [10721/A06] was run?
Its value is 6.4%.

How did the “Fik Kinase %Inhibition” value turn out when `COc1cc(O)ccc1C=C1C(=O)Nc2ccc(S(=O)(=O)Nc3ccc(C(F)(F)F)cc3)cc21` [10720/E03] was run?
The value was 34.3%.

For `Cc1cc(C)c(C=C2C(=O)Nc3ccc(Br)c(C)c32)[nH]1` [10721/C08], which “Fik Kinase %Inhibition” value is on record?
The value was 55.8%.

`CNS(=O)(=O)c1ccc2c(c1)C(=Cc1cc(OC)ccc1O)C(=O)N2` [10720/D10] was tested. Which “Fik Kinase %Inhibition” value did it give?
Its value is -6.6%.

For `CNS(=O)(=O)c1ccc2c(c1)C(=Cc1c(C)cc(O)cc1O)C(=O)N2` [10720/D08], which “Fik Kinase %Inhibition” value is on record?
The value was 3.3%.

`CNS(=O)(=O)c1ccc2c(c1)C(=Cc1ccc(SC)s1)C(=O)N2` [10720/D07] was tested. Which “Fik Kinase %Inhibition” value did it give?
The value was 11.8%.

How did the “Fik Kinase %Inhibition” value turn out when `O=C1Nc2c(Br)cc(Br)cc2C1=Cc1ccc(Cl)s1` [10721/A07] was run?
Its value is -4.7%.

With `Cc1cc(C=C2C(=O)Nc3ccc(Br)c(C)c32)sc1C` [10721/C04] as the compound, how does the “Fik Kinase %Inhibition” value read?
The value was 21.8%.

Which “Fik Kinase %Inhibition” value does the source give for `Cc1cc(C=C2C(=O)Nc3c(Br)cc(Br)cc32)sc1C` [10721/A04] here?
The value was 6.5%.

How did the “Fik Kinase %Inhibition” value turn out when `Cc1c(Br)ccc2c1C(=Cc1ccc(F)cc1)C(=O)N2` [10717/C05] was run?
The value was -2.3%.
